Legend:
Test in all cases: Herbicidal action, post-emergence treatment, field trial
Assay type in all cases: in vivo
Details in all cases: application rate 1250 g/ha ai, scale 0 = no damage, 100 = complete destruction
Tagetes minuta = tested on: Tagetes minuta
Description: (§1) The mixtures according to the invention were applied pre- or post-emergence (foliar treatment). The herbicidal compounds of component B and of component C were applied in the formulation in which they are present as commercially available product.
(§2) The herbicidally active compounds of components A), B) and C) were applied in succession or jointly, in the latter case in some cases as a tank mix and in some cases as a readymix, in the form of emulsions, aqueous solutions or suspensions, the vehicle being water (300-400 l/ha). In the case of the field trials, application was effected with the aid of a mobile plot sprayer.
(§3) The test period extended over 3 to 8 weeks, and the stands were also observed at later points in time.
(§4) Damage by the herbicidal compositions was evaluated with reference to a scale of 0% to 100% in comparison with untreated control plots. 0 means no damage and 100 means complete destruction of the plants.
(§5) In these examples, the value E at which only an additive effect of the individual active ingredients is to be expected was calculated by the method of S. R. Colby (Calculating synergistic and antagonistic responses of herbicide combinations, Weeds 15, 20 pp (1967)).
(§6) This was done using the formula
(§7) [formula] where • X=Percentage of the herbicidal action of component X) at an application rate of x; • Y=Percentage of the herbicidal action of component Y) at an application rate of y; • E=expected herbicidal action of component X)+Y) at rates of application x+y (in %).
(§8) If the value observed exceeds the value E calculated in accordance with Colby's formula, then synergism is present.

Sorghum halepense = tested on: Sorghum halepense
Description: as §1, §2, §3, §4, §5, §6, §7, §8

Anoda cristata = tested on: Anoda cristata
Description: as §1, §2, §3, §4, §5, §6, §7, §8

SMILES: CCNc1nc(Cl)nc(NC(C)C)n1 [atrazine]
- Tagetes minuta Damage [%] (Tagetes minuta): 50%
- Sorghum halepense Damage [%] (Sorghum halepense): 10%
- Anoda cristata Damage [%] (Anoda cristata): 70%

Reference: patent US7521395B2, “Synergistically acting herbicidal mixtures” (BASF Aktiengesellschaft, priority 2002, dated 2009)
